Data published in paper PMC7016953 (Cells, 2020).

What was measured:
hTRPM2 = test system: T1, hTRPM2; assay: Selectivity profiling, fluo-4 [Ca2+]i response, TRPM2; format: cell-based, human; details: 100 µM
T1 construct: expressed in transfected cells
Experimental: (§1) Human embryonic kidney 293 (HEK293) cells were stably transfected with expression plasmids that encode hTRPC3-YFP, hTRPC6-YFP, hTRPC7-YFP, mTRPC4ß-YFP, rTRPV1-CFP, rTRPV2-YFP, rTRPV3-YFP, mTRPV4-YFP, or hTRPM2 as previously described. Cell lines were cultured in Earle’s minimum essential medium (MEM; Sigma, Munich, Germany), supplemented with 10% fetal calf serum (Gibco Thermo Fisher Scientific, Darmstadt, Germany), 2 mM L-glutamine, and required concentrations of geneticin in a range of 0.4–1 mg/mL. A HEK293mTRPC5-YFP cell line was maintained and induced as described before. […] For electrophysiological and single cell [Ca^2+]i imaging experiments, PC12 cells were plated onto 25 mm poly-L-lysine-coated glass coverslips and measured 24–48 h after seeding. […]
(§2) The primary compound screen and the generation of concentration response curves in HEK293 cells or in PC12 cells were performed by using a custom-made fluorescence plate imager built into a robotic liquid handling station equipped with a 96-tip multichannel head (Freedom Evo 150, Tecan, Männedorf, Switzerland) as described previously. […] Plates were mounted on the imager, and fluorescence signals were recorded with a cooled Zyla 5.5 camera (Andor, Belfast, UK) through a 515 nm long pass filter. […] When inhibitory potencies were evaluated, a second pipetting step with the respective reference agonist was performed. […]

rTRPV1-CFP = test system: T2, rTRPV1-CFP; assay: Selectivity profiling, fluo-4 [Ca2+]i response, TRPV1; format: cell-based, rat; details: 100 µM
T2 construct: expressed in transfected cells
Experimental: as §1, §2

TRPC3 = molecular target: T3, TRPC3 (Homo sapiens, UniProt Q13507); assay: Fluo-4 Ca2+ influx assay in HEK TRPC3-YFP cell suspensions; format: cell-based
T3 construct: expressed in transfected cells
T3 sequence (Q13507 1-848 isoform Q13507-3): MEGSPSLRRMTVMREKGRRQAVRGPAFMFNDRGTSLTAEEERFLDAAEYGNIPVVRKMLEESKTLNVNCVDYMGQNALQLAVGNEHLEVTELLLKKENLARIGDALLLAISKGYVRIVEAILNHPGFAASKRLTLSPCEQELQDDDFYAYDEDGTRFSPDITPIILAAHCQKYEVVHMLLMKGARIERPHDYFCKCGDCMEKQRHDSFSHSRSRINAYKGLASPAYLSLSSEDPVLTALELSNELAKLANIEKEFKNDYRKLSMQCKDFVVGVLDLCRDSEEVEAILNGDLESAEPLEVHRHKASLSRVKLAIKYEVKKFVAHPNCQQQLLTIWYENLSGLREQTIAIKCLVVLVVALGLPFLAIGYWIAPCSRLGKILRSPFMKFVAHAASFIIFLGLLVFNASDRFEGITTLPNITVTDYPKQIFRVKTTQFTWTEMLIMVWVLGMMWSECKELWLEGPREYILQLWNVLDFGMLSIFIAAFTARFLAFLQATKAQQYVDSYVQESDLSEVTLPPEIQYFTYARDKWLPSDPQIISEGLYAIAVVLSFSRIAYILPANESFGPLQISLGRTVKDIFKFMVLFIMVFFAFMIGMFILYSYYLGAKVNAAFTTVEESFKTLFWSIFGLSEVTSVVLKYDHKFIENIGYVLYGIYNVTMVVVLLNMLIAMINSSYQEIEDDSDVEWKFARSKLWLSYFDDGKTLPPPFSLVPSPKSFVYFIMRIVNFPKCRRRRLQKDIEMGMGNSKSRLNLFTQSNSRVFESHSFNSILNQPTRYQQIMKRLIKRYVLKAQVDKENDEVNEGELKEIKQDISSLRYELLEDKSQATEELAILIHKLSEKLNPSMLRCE

EC50 of artemisinin under simultaneous application of OAG (TRPC3; 10–100 µM OAG co-applied): not affected | EC50 (TRPC3; fluo-4, HEK TRPC3-YFP cell suspensions, read-out: potency to activate Ca2+ entry through TRPC3): 32.8 µM
Structure (SMILES): C[C@@H]1CC[C@H]2[C@@H](C)C(=O)O[C@@H]3O[C@@]4(C)CC[C@@H]1[C@]32OO4 [artemisinin]
[Ca2+]i response, TRPM2 (hTRPM2): none of the cell lines responded | [Ca2+]i response, TRPV1 (rTRPV1-CFP): none of the cell lines responded | fluorescence signal of the Ca2+ indicator in primary screen (TRPC3; 20 µM, acute addition): immediate and transient increase in the fluorescence signal | Ca2+ influx signals after preincubation with OAG (TRPC3; preincubation with 500 nM, 1 µM, or 5 µM OAG): did not induce stronger Ca^2+ influx signals
